Values quoted from earlier work, collected in patent US20020171063A1, “Reduced toxicity ethylene glycol-based antifreeze/heat transfer fluid concentrates and antifreeze/heat transfer fluids” (priority 2001, published 2002).

System: laboratory rats

SMILES | acute oral toxicity (LD50)
CC(O)CO (centres unmarked) [PG, 1,2-propanediol] | 20,000 mg/kg
O.O.O.O.O=B[O-].[Na+] [metaborate] | 1,700 mg/kg
